This note sets out measurements from US20250312365A1, “METHODS FOR INHIBITION OF SQUAMOUS CARCINOMA CELLS USING CERAMIDE MODULATORS” (The Trustees of Indiana University, priority 2024, published 2025).

Format in all cases: cell-based, human
Assay [1] has as its system ACER2. The assay is described as follows: ACER2 mRNA expression in SCC4 cells. Conditions: 0.1 or 1 μg/ml of PGDHC. Here is the method:
(§1) Next, the effect of PGDHC on ceramidase gene expression was determined. OECM1 and SCC4 cells were exposed to 0.1 or 1 μg/ml of PGDHC. The mRNA levels of ceramidases were then measured following PGDHC exposure. PGDHC inhibited the expression of ASAH1 and ACER2 mRNAs in OECM1 (FIG. 8). […] See, e.g., Vijayan et al., J Adv Res. 2023 Dec. 21:S2090-1232(23)00403-4, Doan et al., Oncotarget. 2017 Nov. 7;8(68):112662-112674., Lai et al., Sci Rep. 2021 May 27;11(1):11221, Liu et al., Cancer Sci. 2020 July;111(7):2259-2274., and Liu et al., Front Genet. 2023 Mar. 1:14:1148437.

The subject of the next assay is MMP2. As to the kind of experiment: MMP2 mRNA expression in OECM1 cells. The method, then: NF-kB, MMP-2, ADAM-17, and IL6 are implicated in the degradation of the expression of genes involved in the cell basement membrane and extracellular matrix of oral squamous cell carcinoma. Accordingly, the expression of NFkB, MMP2, ADAM17, and IL6 in OECM1 cells following exposure to 0.1 μg/ml PGDHC and 1 μg/ml PGDHC was determined.
Sphingosine-1-phosphate (S1P) sphingolipid plays an essential role in the survival, migration, and degradation of the basement membrane and extracellular matrix of oral squamous cell carcinoma (Yura et al., Cancers (Basel). 2020 August; 12(8): 2062). To determine whether PGDHC can inhibit such properties, the combined effects of PGDHC and S1P on OECM1 gene expression was tested in vitro.

The test system of assay [2] is ACER2. The assay is described as follows: ACER2 mRNA expression in OECM1 cells. Conditions: 0.1 or 1 μg/ml of PGDHC.
Text: Exemplary ceramidase genes, the expression of which can be measured to determine upregulation, include but are not limited to ASAH1, ACER2, and ACER3. A determination of ceramidase gene expression can be made according to methods available to one of skill in the art. For example, Yamada et al., J Cell Mol Med. 2023 May;27(9):1290-1295 and Kyriakou et al., Int. J. Mol. Sci. 2020, 21(5):1607 describes measuring the mRNA levels of ceramidases by RNA extraction and RT-PCR.
To test this hypothesis, it was first determined whether artificially elevated intracellular concentration of ceramide species affect the expression of acid/ASAH1, neutral/ASAH2, and alkaline1-3/ACER1-3 ceramidases in oral squamous cell carcinoma cells using C6-ceramide. Applicant previously reported that C6-ceramide serves as a positive control for PGDHC-mediated inflammation (Kanzaki et al., Biochim Biophys Acta Mol Cell Biol Lipids. 2017 May;1862(5):452-462) and promotes the intracellular accumulation of ceramide in cancer cells. See, e.g., Zhang et al., Front Plant Sci. 2020 Feb. 26:11:145, Zhai et al., Biochem Biophys Res Commun. 2015 December;468(1-2):274-80, Wilhelm et al., Cancers (Basel). 2021 Jan. 13;13(2):270, and Chapman et al., Biochem Pharmacol. 2010 Aug. 1;80(3):308-15.
as §1
To elucidate the effects of C16:0 and dh-C16:0 on oral squamous cell carcinoma, the ability of exogenous C16:0 and dh-C16:0 to modulate proliferation and ceramidase expression in OECM1 cells was determined. […] In contrast, no effect of C16:0 on ASAH1 and ACER2 mRNA expressions.

Another assay concerns OECM1 cells. The assay is described as follows: Untargeted metabolomic pathway analysis (LC/MS) in OECM1 cells. Conditions: 1 μg/ml for 6 h. An excerpt:
Based on this analysis, at least 5 different cell survival metabolomic pathways, underlined in red were diminished in OSCC (OECM1 and SCC9), but not in healthy epithelial OBA9 cells in response to PGDHC. The 5 pathways were folate metabolism, arginine and proline metabolism, glycine and serine metabolism, de novo triacylglycerol biosynthesis, and mitrochondrial electron transport chain.
The plots in FIGS. 16A and 16B display the enriched pathways identified in the analysis, with their corresponding significance levels represented on the x-axis. The significance threshold (p<0.05) is denoted by the dashed line. […] Additionally, the color of the dots represents the enrichment, which indicates the extent to which the metabolites in the pathway were clustered amongst the compounds with the most positive fold-changes (positive enrichments), the most negative fold-changes (negative enrichments), or uniformly distributed across high and low fold-change compounds (enrichment values near 0.0). […] Polar and lipid metabolites were analyzed with hydrophilic interaction chromatography (HILIC/MS) and liquid chromatography (LC/MS), respectively. Mass spectrometry analysis was completed with a mass range of 67-1500 Da with 1 scan/sec and a mass resolution of 120,000 in both positive and negative ionization mode. The MS/MS mass-spectrometry data were acquired in a data-dependent iterative fashion with a 1.3 m/z isolation window. Based upon this metabolomic analysis, phosphoglycerol dihydroceramide (PGDHC) isolated from Porphyromonas gingivalis inhibits metabolomic pathways essential for cell survival in oral squamous cell carcinoma cells (OSCC).
The Warburg effect is a metabolic phenomenon observed in many cancer cells, where the cells preferentially use glycolysis metabolism to produce energy instead of oxidative phosphorylation. The Warburg effect is a hallmark of rapid cancer cell growth. Therefore, we evaluated whether PGDHC altered Warburg effect in OSCM1 and SCC9 oral squamous cell carcinoma cells (FIG. 17A), but not healthy epithelial OBA9 cells (FIG. 17B), in vitro. Cells were stimulated with PGDHC (1 μg/ml) for 6 h and the untargeted metabolomic analysis was performed using LC/MS mass-spectrometry. Polar and lipid metabolites were analyzed with HILIC/MS and LC/MS, respectively. Mass spectrometry analysis was completed with a mass range of 67-1500 Da with 1 scan/sec and a mass resolution of 120,000 in both positive and negative ionization mode. MS/MS data were acquired in a data-dependent iterative fashion with a 1.3 m/z isolation window.
Based upon the impact of PGDHC on the Warburg effect in OSCC cells, we further analyzed the levels of cancer-survival metabolites adenosine triphosphate (ATP) and glucose in the OECM1, SCC9, and OBA9 cells described in Example 11. As shown in FIG. 18A and FIG. 18B, PGDHC altered the levels of both ATP and glucose in OECM1 and SCC9 oral squamous cell carcinoma cells, but not OBA9. The metabolites levels are presented as the relative abundance based on the data presented in FIG. 16 and FIG. 17 heat maps.

“Also recorded” adds a separate entry of the source.

Consider phosphoglycerol dihydroceramide [PGDHC], for which, in the assay on ACER2 [1], the “expression of ACER2 mRNA in SCC4 cells” value is “downregulated”. In the assay with MMP2 (1 μg/ml), the “expression of MMP2 mRNA in OECM1 cells” value is given as “significantly inhibited”. Also, in the assay on MMP2 (in combination with S1P), the “MMP2 mRNA levels in OECM1 cells exposed to S1P” value was “a significant effect was not observed”. In the assay on ACER2 [2], the “expression of ACER2 mRNA in OECM1” value was “inhibited”. Further, in the assay on OECM1 cells, the “Warburg effect in OECM1 cells” value was “altered”; the “arginine and proline metabolism in OECM1 cells” value is “diminished accumulation; also recorded: inhibits”; the “de novo triacylglycerol biosynthesis in OECM1 cells” value is reported as “diminished accumulation; also recorded: inhibits”; the “folate metabolism in OECM1 cells” value was “diminished accumulation; also recorded: inhibits”. Moreover, in the assay with OECM1 cells, the “glycine and serine metabolism in OECM1 cells” value is “diminished accumulation; also recorded: inhibits”; the “level of ATP in OECM1 cells (relative abundance)” value is reported as “altered”; the “level of glucose in OECM1 cells (relative abundance)” value is “altered”; the “mitochondrial electron transport in OECM1 cells” value is “diminished accumulation; also recorded: inhibits”.
